Read-outs that look alike come from different tables or passages of the source.
How the values were obtained:
[1] = Stability in mouse serum at 37 °C; assay type: in vitro ADME
Method: For serum stability, mouse serum or human serum (0.5 mL, both purchased from Sigma-Aldrich) was combined with an aliquot of each of the peptides [^64Cu]1 and [^64Cu]2 (≤25 μL, 14.8–22.2 MBq) and incubated at 37 °C. At each time point (1, 4, and 24 h) an aliquot (50–200 μL) was taken, proteins precipitated with ethanol, and removed by pelleting at 1500 (RCF) for 4 min. The ethanol solution was diluted with water (1 mL) and analyzed by RP-HPLC as previously described.

[2] = test system: mouse serum protein; test: Mouse serum protein binding by ultrafiltration; assay type: in vitro ADME; details: 37 °C
Method: Serum protein binding of [^64Cu]1 and [^64Cu]2 was assessed following the previously reported method. Peptides [^64Cu]1 and [^64Cu]2 were evaluated by ultrafiltration using Centrifree Ultrafiltration devices (EMD) according to the manufacturer’s recommendations. Experiments were carried out in triplicate. The Centrifree Ultrafiltration devices were pretreated with PBS containing Tween 20 (5% v/v), followed by triplicate rinses with PBS. An aliquot of each peptide [^64Cu]1 or [^64Cu]2 in PBS (≤25 μL, 20–60 KBq) was thoroughly mixed with 0.5 mL of serum at 37 °C in a microfuge tube. The mixture was incubated at 37 °C for 5 min, and an aliquot (50 μL) was transferred to a tube for γ-counting. The remaining sample was transferred to a Centrifree Ultrafiltration device and centrifuged for 40 min at 1500 (RCF) at ambient temperature (20–24 °C). An aliquot (50 μL) of the filtrate was transferred to a tube for γ-counting. […] Following γ-counting, the protein-bound radioactivity was calculated by subtracting the counts measured in the filtrate aliquot (i.e., not protein-bound) from the counts in the corresponding serum aliquot. The data are expressed as mean ± standard deviation of fraction of radioactivity bound to protein after subtraction of non-specific binding determined in the blank.

[3] = Biodistribution in mice bearing BxPC-3 xenograft tumors; assay type: in vivo; details: female, athymic nu/nu-nude, mouse, in vivo, total radioactivity; for tissue uptake at 4 h: 4 h p.i.; for tissue uptake at 24 h: 24 h p.i.; for tissue uptake at 48 h: 48 h p.i.
Outline: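 Female athymic nu/nu mice bearing subcutaneous BxPC-3 (integrin αvβ6-positive) flank tumors 0.5–1 cm, given [^64Cu]-labelled peptides (3.7–5.55 MBq) i.v. via tail vein. Tissues taken at 4, 24, 48 and 72 h p.i. and γ-counted; decay-corrected uptake reported as % ID/g, mean ± SD.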

[4] = iv, i.v., read-out: Blood uptake
[5] = iv, i.v., read-out: Bone uptake
[6] = iv, i.v., read-out: Brain uptake
[7] = iv, i.v., read-out: BxPC-3 Tumor uptake
[8] = iv, i.v., read-out: Fecal Matter radioactivity
[9] = iv, i.v., read-out: Gall Bladder uptake
[10] = iv, i.v., read-out: Heart uptake
[11] = iv, i.v., read-out: Kidneys uptake
[12] = iv, i.v., read-out: Lg. Intestines uptake
[13] = iv, i.v., read-out: Liver uptake
[14] = iv, i.v., read-out: Lung uptake
[15] = iv, i.v., read-out: Muscle uptake
[16] = iv, i.v., read-out: Pancreas uptake
[17] = iv, i.v., read-out: Skin uptake
[18] = iv, i.v., read-out: Sm. Intestines uptake
[19] = iv, i.v., read-out: Spleen uptake
[20] = iv, i.v., read-out: Stomach uptake
[21] = iv, i.v., read-out: Urine radioactivity

## CC(C)C[C@H](NC(=O)[C@H](CC(=O)O)NC(=O)CNC(=O)[C@H](CCCNC(=N)N)NC(=O)[C@H](CC(C)C)NC(=O)[C@H](CC(N)=O)NC(=O)[C@@H]1CCCN1C(=O)[C@@H](NC(=O)[C@H](C)NC(=O)[C@H](CC(N)=O)NC(=O)CCOCCOCCOCCOCCOCCOCCOCCOCCOCCOCCOCCOCCOCCOCCOCCOCCOCCOCCOCCOCCOCCOCCOCCOCCOCCOCCOCCOCCNC(=O)[C@H](CCCCNC(=O)[C@H](CC(=O)O)NC(=O)CCCNC(=O)CCCc1ccc(I)cc1)NC(=O)CN1CCN(CC(=O)O)CCN(CC(=O)O)CCN(CC(=O)O)CC1)C(C)C)C(=O)N[C@@H](CCC(N)=O)C(=O)N[C@H](C(=O)N[C@@H](CC(C)C)C(=O)N[C@@H](C)C(=O)N[C@@H](CCC(N)=O)C(=O)N[C@@H](CCCNC(=N)N)C(=O)N[C@H](C(=O)N[C@@H](C)C(=O)N[C@@H](CCCNC(=N)N)C(=O)N[C@H](C(=O)NCCOCCOCCOCCOCCOCCOCCOCCOCCOCCOCCOCCOCCOCCOCCOCCOCCOCCOCCOCCOCCOCCOCCOCCOCCOCCOCCOCCOCCC(N)=O)[C@@H](C)O)C(C)C)C(C)C [[^64Cu]2, [^64Cu]Cu DOTA-IP-αvβ6-BP, metal not drawn]
[1]; 24 h
  Fold higher stability than [64Cu]1 in mouse serum: 3.4 fold
[1]; mouse, mouse serum, 1 h, read-out: Stability in mouse serum, % intact
  remaining at 1 h: 92%
[1]; mouse, mouse serum, 4 h, read-out: Stability in mouse serum, % intact
  remaining at 4 h: 83%
[1]; mouse, mouse serum, 24 h, read-out: Stability in mouse serum, % intact
  remaining at 24 h: 48%
[2]
  Binding to mouse serum protein: 44.0 ± 0.1%
[3]; [4]
  tissue uptake at 4 h: 1.21 ± 0.16 %ID/g
  tissue uptake at 24 h: 0.2 ± 0.04 %ID/g
  tissue uptake at 48 h: 0.2 ± 0.04 %ID/g
[3]; [5]
  tissue uptake at 4 h: 0.59 ± 0.15 %ID/g
  tissue uptake at 24 h: 0.28 ± 0.21 %ID/g
  tissue uptake at 48 h: 0.24 ± 0.09 %ID/g
[3]; [6]
  tissue uptake at 4 h: 0.12 ± 0.002 %ID/g
  tissue uptake at 24 h: 0.08 ± 0.01 %ID/g
  tissue uptake at 48 h: 0.09 ± 0.01 %ID/g
[3]; [7]
  tissue uptake at 4 h: 7.6 ± 0.43 %ID/g
  tissue uptake at 24 h: 4.41 ± 1.25 %ID/g
  tissue uptake at 48 h: 4.09 ± 1.28 %ID/g
[3]; [8]
  tissue uptake at 4 h: 9.32 ± 1.08 %ID/g
  tissue uptake at 24 h: 4.58 ± 1.03 %ID/g
  tissue uptake at 48 h: 2.67 ± 0.58 %ID/g
[3]; [9]
  tissue uptake at 4 h: 4.33 ± 2.64 %ID/g
  tissue uptake at 24 h: 5.05 ± 3.56 %ID/g
  tissue uptake at 48 h: 2.83 ± 0.86 %ID/g
[3]; [10]
  tissue uptake at 4 h: 2.22 ± 0.11 %ID/g
  tissue uptake at 24 h: 1.61 ± 0.06 %ID/g
  tissue uptake at 48 h: 1.43 ± 0.2 %ID/g
[3]; [11]
  tissue uptake at 4 h: 33.6 ± 5.39 %ID/g
  tissue uptake at 24 h: 21.9 ± 1.74 %ID/g
  tissue uptake at 48 h: 11.8 ± 1.02 %ID/g
[3]; [12]
  tissue uptake at 4 h: 9.83 ± 0.69 %ID/g
  tissue uptake at 24 h: 5.58 ± 0.94 %ID/g
  tissue uptake at 48 h: 3.95 ± 0.81 %ID/g
[3]; [13]
  tissue uptake at 4 h: 1.58 ± 0.26 %ID/g
  tissue uptake at 24 h: 1.62 ± 0.2 %ID/g
  tissue uptake at 48 h: 1.71 ± 0.21 %ID/g
[3]; [14]
  tissue uptake at 4 h: 2.25 ± 0.39 %ID/g
  tissue uptake at 24 h: 1.69 ± 0.07 %ID/g
  tissue uptake at 48 h: 1.33 ± 0.15 %ID/g
[3]; [15]
  tissue uptake at 4 h: 0.99 ± 0.3 %ID/g
  tissue uptake at 24 h: 0.78 ± 0.22 %ID/g
  tissue uptake at 48 h: 0.63 ± 0.07 %ID/g
[3]; [16]
  tissue uptake at 4 h: 1.04 ± 0.09 %ID/g
  tissue uptake at 24 h: 0.78 ± 0.01 %ID/g
  tissue uptake at 48 h: 0.64 ± 0.08 %ID/g
[3]; [17]
  tissue uptake at 4 h: 2.72 ± 0.31 %ID/g
  tissue uptake at 24 h: 1.48 ± 0.03 %ID/g
  tissue uptake at 48 h: 1.22 ± 0.22 %ID/g
[3]; [18]
  tissue uptake at 4 h: 9.55 ± 1.21 %ID/g
  tissue uptake at 24 h: 4.58 ± 0.62 %ID/g
  tissue uptake at 48 h: 2.28 ± 0.1 %ID/g
[3]; [19]
  tissue uptake at 4 h: 0.41 ± 0.13 %ID/g
  tissue uptake at 24 h: 0.31 ± 0.05 %ID/g
  tissue uptake at 48 h: 0.35 ± 0.05 %ID/g
[3]; [20]
  tissue uptake at 4 h: 18.1 ± 2.91 %ID/g
  tissue uptake at 24 h: 11.1 ± 1.16 %ID/g
  tissue uptake at 48 h: 6.4 ± 1.02 %ID/g
[3]; [21]
  tissue uptake at 4 h: 25.1 ± 6.79 %ID/g
  tissue uptake at 24 h: 1.7 ± 1.91 %ID/g
  tissue uptake at 48 h: 3.24 ± 1.03 %ID/g
[3]; iv, 72 h p.i., i.v., read-out: Blood uptake
  tissue uptake at 72 h: 0.17 ± 0.001 %ID/g
[3]; iv, 72 h p.i., i.v., read-out: Bone uptake
  tissue uptake at 72 h: 0.26 ± 0.01 %ID/g
[3]; iv, 72 h p.i., i.v., read-out: Brain uptake
  tissue uptake at 72 h: 0.1 ± 0.02 %ID/g
[3]; iv, 72 h p.i., i.v., read-out: BxPC-3 Tumor uptake
  tissue uptake at 72 h: 4.91 ± 1.19 %ID/g
[3]; iv, 72 h p.i., i.v., read-out: Fecal Matter radioactivity
  tissue uptake at 72 h: 2.29 ± 0.53 %ID/g
[3]; iv, 72 h p.i., i.v., read-out: Gall Bladder uptake
  tissue uptake at 72 h: 3.21 ± 1.02 %ID/g
[3]; iv, 72 h p.i., i.v., read-out: Heart uptake
  tissue uptake at 72 h: 1.05 ± 0.05 %ID/g
[3]; iv, 72 h p.i., i.v., read-out: Kidneys uptake
  tissue uptake at 72 h: 11.5 ± 1.02 %ID/g
[3]; iv, 72 h p.i., i.v., read-out: Lg. Intestines uptake
  tissue uptake at 72 h: 3 ± 0.37 %ID/g
[3]; iv, 72 h p.i., i.v., read-out: Liver uptake
  tissue uptake at 72 h: 1.3 ± 0.13 %ID/g
[3]; iv, 72 h p.i., i.v., read-out: Lung uptake
  tissue uptake at 72 h: 1.16 ± 0.22 %ID/g
[3]; iv, 72 h p.i., i.v., read-out: Muscle uptake
  tissue uptake at 72 h: 0.76 ± 0.24 %ID/g
[3]; iv, 72 h p.i., i.v., read-out: Pancreas uptake
  tissue uptake at 72 h: 0.57 ± 0.06 %ID/g
[3]; iv, 72 h p.i., i.v., read-out: Skin uptake
  tissue uptake at 72 h: 0.92 ± 0.14 %ID/g
[3]; iv, 72 h p.i., i.v., read-out: Sm. Intestines uptake
  tissue uptake at 72 h: 1.24 ± 0.11 %ID/g
[3]; iv, 72 h p.i., i.v., read-out: Spleen uptake
  tissue uptake at 72 h: 0.38 ± 0.14 %ID/g
[3]; iv, 72 h p.i., i.v., read-out: Stomach uptake
  tissue uptake at 72 h: 3.14 ± 0.62 %ID/g
[3]; iv, 72 h p.i., i.v., read-out: Urine radioactivity
  tissue uptake at 72 h: 1.46 ± 1.17 %ID/g
[3]; 72 h, read-out: GI uptake
  tissue uptake at 72 h: < 3.2 %ID/g
[3]; throughout 4–72 h, read-out: Liver uptake throughout
  tissue uptake: < 3 %ID/g

Reference: PMC9025560, “A Comparison of Evans Blue and 4-(p-Iodophenyl)butyryl Albumin Binding Moieties on an Integrin αvβ6 Binding Peptide” (Pharmaceutics, 2022)
